Measured values taken from article PMC11124822, “Discovery and Anticancer Screening of Novel Oxindole-Based Derivative Bearing Pyridyl Group as Potent and Selective Dual FLT3/CDK2 Kinase Inhibitor” (Pharmaceuticals, 2024).

How the values were obtained:
Test in all cases: NCI-60 antiproliferative screen (SRB)
[1] = tested on: MCF7; type: cell-based, human; conditions: 48 h
[2] = tested on: NCI-H322M; type: cell-based, human; conditions: five-dose, 48 h, NCI-H322M
[3] = tested on: DU-145; type: cell-based, human; conditions: 48 h
[4] = tested on: U251; type: cell-based, human; conditions: 48 h
[5] = tested on: NCI-H226; type: cell-based, human; conditions: 48 h
[6] = tested on: HT29; type: cell-based, human; conditions: 48 h
[7] = tested on: RXF 393; type: cell-based, human; conditions: 48 h
[8] = tested on: BT-549; type: cell-based, human; conditions: 48 h
[9] = tested on: ACHN; type: cell-based, human; conditions: 48 h
[10] = tested on: T-47D; type: cell-based, human; conditions: 48 h
[11] = tested on: MDA-MB-435; type: cell-based, human; conditions: 48 h
[12] = tested on: NCI-H460; type: cell-based, human; conditions: 48 h
[13] = tested on: SF-268; type: cell-based, human; conditions: 48 h
[14] = tested on: SR; conditions: Homo sapiens, 48 h, read-out: Growth inhibition (%)
[15] = tested on: SF-539; type: cell-based, human; conditions: 48 h
[16] = tested on: LOX IMVI; type: cell-based, human; conditions: Homo sapiens, 48 h

O=C1Nc2cc(Cl)ccc2C1=Cc1ccc(OCc2cccnc2)cc1 (mixture of isomers) [Compound 5l, (E/Z)-6-Chloro-3-[4-(pyridin-3-ylmethoxy)benzylidene] indolin-2-one]
inhibition at 10 µM ([1]; Homo sapiens, 10 µM single dose, MCF7 (Breast), read-out: Growth inhibition (%)): 90.5%
GI50 ([1]; Homo sapiens, five-dose, MCF7): 2.9 µM
CC50 ([1]; Homo sapiens, five-dose, MCF7, read-out: LC50 (the source's name)): > 100 µM
TGI ([1]; five-dose, MCF7): 30.90 µM
GI50 ([2]; Homo sapiens): 23.2 µM
TGI [2]: >100 µM
inhibition at 10 µM ([3]; Homo sapiens, 10 µM single dose, DU-145 (Prostate), read-out: Growth inhibition (%)): 58.6%
GI50 ([3]; Homo sapiens, five-dose, DU-145): 13.2 µM
TGI ([3]; five-dose, DU-145): 54.90 µM
inhibition at 10 µM ([4]; Homo sapiens, U-251, 10 µM single dose, U251 (CNS), read-out: Growth inhibition (%)): 76.4%
GI50 ([4]; Homo sapiens, U-251, five-dose, U251): 7.55 µM
CC50 ([4]; Homo sapiens, U-251, five-dose, U251, read-out: LC50 (the source's name)): > 100 µM
TGI ([4]; five-dose, U251): 39.40 µM
inhibition at 10 µM ([5]; Homo sapiens, 10 µM single dose, NCI-H226 (NSCLC), read-out: Growth inhibition (%)): 62.9%
GI50 ([5]; Homo sapiens, five-dose, NCI-H226): 9 µM
TGI ([5]; five-dose, NCI-H226): 70.00 µM
inhibition at 10 µM ([6]; Homo sapiens, HT-29, 10 µM single dose, HT29 (Colon), read-out: Growth inhibition (%)): 90.3%
GI50 ([6]; Homo sapiens, HT-29, five-dose, HT29): 6.45 µM
CC50 ([6]; Homo sapiens, HT-29, five-dose, HT29, read-out: LC50 (the source's name)): > 100 µM
TGI ([6]; five-dose, HT29): 37.80 µM
GI50 ([7]; Homo sapiens, RXF 393, five-dose, RXF393): 9.07 µM
CC50 ([7]; Homo sapiens, RXF 393, five-dose, RXF393, read-out: LC50 (the source's name)): > 100 µM
inhibition at 10 µM ([7]; Homo sapiens, 10 µM single dose, RXF 393 (Renal), read-out: Growth inhibition (%)): 63.4%
TGI ([7]; five-dose, RXF393): 90.20 µM
inhibition at 10 µM ([8]; Homo sapiens, 10 µM single dose, BT-549 (Breast), read-out: Growth inhibition (%)): 95.7%
GI50 ([8]; Homo sapiens, five-dose, BT-549): 10.4 µM
CC50 ([8]; Homo sapiens, five-dose, BT-549, read-out: LC50 (the source's name)): > 100 µM
TGI ([8]; five-dose, BT-549): 46.30 µM
inhibition at 10 µM ([9]; Homo sapiens, 10 µM single dose, ACHN (Renal), read-out: Growth inhibition (%)): 55.1%
GI50 ([9]; Homo sapiens, five-dose, ACHN): 10.8 µM
TGI ([9]; five-dose, ACHN): 75.30 µM
inhibition at 10 µM ([10]; Homo sapiens, T47D, 10 µM single dose, T-47D (Breast), read-out: Growth inhibition (%)): 69%
GI50 ([10]; Homo sapiens, T47D, five-dose, T-47D): 3.18 µM
CC50 ([10]; Homo sapiens, T47D, five-dose, T-47D, read-out: LC50 (the source's name)): > 100 µM
TGI ([10]; five-dose, T-47D): >100 µM
inhibition at 10 µM ([11]; Homo sapiens, 10 µM single dose, MDA-MB-435 (Melanoma), read-out: Growth inhibition (%)): 121%
GI50 ([11]; Homo sapiens, five-dose, MDA-MB-435): 4.44 µM
TGI ([11]; five-dose, MDA-MB-435): 76.90 µM
inhibition at 10 µM ([12]; Homo sapiens, 10 µM single dose, NCI-H460 (NSCLC), read-out: Growth inhibition (%)): 77.7%
GI50 ([12]; Homo sapiens, five-dose, NCI-H460): 14 µM
CC50 ([12]; Homo sapiens, five-dose, NCI-H460, read-out: LC50 (the source's name)): > 100 µM
TGI ([12]; five-dose, NCI-H460): >100 µM
inhibition at 10 µM ([13]; Homo sapiens, 10 µM single dose, SF-268 (CNS), read-out: Growth inhibition (%)): 45.4%
GI50 ([13]; Homo sapiens, five-dose, SF-268): 10.8 µM
CC50 ([13]; Homo sapiens, five-dose, SF-268, read-out: LC50 (the source's name)): > 100 µM
TGI ([13]; five-dose, SF-268): 88.10 µM
inhibition at 10 µM [14]: 84.2%
inhibition at 10 µM ([15]; Homo sapiens, 10 µM single dose, SF-539 (CNS), read-out: Growth inhibition (%)): 59.3%
GI50 ([15]; Homo sapiens, five-dose, SF-539): 13.6 µM
TGI ([15]; five-dose, SF-539): >100 µM
CC50 ([16]; LOX IMVI, five-dose, LOX IMVI, read-out: LC50 (the source's name)): 96.9 µM
inhibition at 10 µM ([16]; 10 µM single dose, LOX IMVI (Melanoma), read-out: Growth inhibition (%)): 91%
GI50 ([16]; five-dose, LOX IMVI): 4.7 µM
